Laboratory results taken from US5578585A, “Pleuromutilin derivative complexes” (Biochemie Gesellschaft m.b.H., priority 1991, dated 1996).

Key:
[1] = Feed stability: optimum ratio of compound of formula I to β-cyclodextrin; type: physicochemical; details: feed mixtures, ratio to β-cyclodextrin varied
Protocol: (§1) As model feed a ready feed for piglets of the following composition is used:
Various forms of the preparation are mixed with the ready feed in a concentration of 200 ppm of compound of formula I and stored for several weeks at 30°. […]
For determination of the optimum ratio of compound of formula I to cyclodextrin, investigations are carried out using various concentrations of cyclodextrin. Results as regards stability in feed mixtures are summarized in Table 2 [in the first column "ratio" means the ratio of compound of formula I (hydrochloride) to β-cyclodextrin]: […]

[2] = Feed stability: storage in ready piglet feed, content by HPLC; type: physicochemical; details: feed mixture, 200 ppm, 30°
Protocol: as §1
Various forms of the preparation are mixed with the ready feed in a concentration of 200 ppm of compound of formula I and stored for several weeks at 30°. Both the starting value of the fresh mixtures and the content values after storage for 2, 4 and 8 weeks are analysed by high pressure liquid chromatography (HPLC).

[3] = Oral absorption in pigs, plasma concentration by microbiological analysis; type: in vivo; details: pig, 25 mg/kg body weight, pure compound in drinking water
Protocol: (§2) Absorption following administration to rats and pigs of 25 mg/kg body weight of a preparation according to Example 3 is tested and compared with pure compound of formula I (hydrochloride) in the drinking water. Blood samples are taken after a period of 24 hours and the concentration of active substance in plasma determined by microbiological analysis. The results in Table 3 show the absorption of the compound of formula I when administered in the form of a complex of the invention: […]

[4] = Oral absorption in rats, plasma concentration by microbiological analysis; type: in vivo; details: rat, 25 mg/kg body weight, pure compound in drinking water
Protocol: as §2

[5] = Phase-solubility diagram (inclusion compound type, complex binding constant) with β-cyclodextrin; type: physicochemical; details: compound of formula I in the form of the base; with cyclodextrin (printed without Greek letter)
Source text: (§3) Based on the phase-solubility diagram (see "Methods of investigating and preparing inclusion compounds and their industrial uses" in D. Duchene, "Cyclodextrins and their Industrial Uses", Editions de Sante [1987]), the following types of inclusion compounds are obtained with the compound of formula I in the form of the base and […]

[6] = Phase-solubility diagram (inclusion compound type, complex binding constant) with γ-cyclodextrin; type: physicochemical; details: compound of formula I in the form of the base
Source text: as §3

[7] = test system: gram-positive and gram-negative bacteria; details: many gram-positive and gram-negative bacteria; free base, acid addition or quaternary salt form; cited from earlier work
[8] = Stability in conventional complete feed mixtures (general statement); type: physicochemical
[9] = read-out: AUC (area under curve)
[10] = read-out: Cmax (maximum plasma concentration)

With `C=C[C@]1(C)C[C@@H](OC(=O)CSC(C)(C)CNC(=O)[C@H](N)C(C)C)[C@]2(C)[C@H](C)CC[C@]3(CCC(=O)[C@H]32)[C@@H](C)[C@@H]1O` [14-O-[1-((D)-2-amino-3-methylbutyrylamino)-2-methylpropan-2-ylthioacetyl]mutilin] as the compound, how does the “Content after 1 month” value ([1]; after 1 month, 43800 min) read?
The value was 9%.

And the “Content after 2 months” value ([1]; after 2 months, 87600 min)?
The value was 9%.

And the “Content after 3 months” value ([1]; after 3 months, 131400 min)?
Its value is 7%.

And the “Content, initial value” ([1]; initial value)?
The value was 100%.

And the “Content after 2 weeks” value ([2]; after 2 weeks, 20160 min)?
Its value is 15%.

And the “Content after 4 weeks” value ([2]; after 4 weeks, 40320 min)?
The value was 8%.

What about the “Content after 8 weeks” value ([2]; after 8 weeks, 80640 min) of the same compound?
The value was 6%.

And the “Content, initial value” ([2]; initial value)?
The value was 100%.

And the AUC [3, 9]?
Its AUC is 21400 ng·h/mL.

What about the Cmax [3, 10] of the same compound?
The Cmax was 1200 ng/mL.

And the AUC [4, 9]?
Its AUC is 139 µg·h/mL.

And the Cmax [4, 10]?
Its Cmax is 8600 ng/mL.

Which “type of inclusion compound (phase-solubility diagram)” value [5] does the source give for `C=C[C@]1(C)C[C@@H](OC(=O)CSC(C)(C)CNC(=O)[C@H](N)C(C)C)[C@]2(C)[C@H](C)CC[C@]3(CCC(=O)[C@H]32)[C@@H](C)[C@@H]1O` [compound of formula I, 14-O-[1-((D)-2-amino-3-methylbutyrylamino)-2-methylpropan-2-ylthioacetyl]mutilin] here?
Its value is “type AL”.

And the “type of inclusion compound (phase-solubility diagram)” value [6]?
The value was “type BS”.

And the antibacterial effectiveness [7]?
Its antibacterial effectiveness is “highly effective”.

And the “breakdown by constituents of conventional complete feed mixtures” value [8]?
The value was “broken down very rapidly”.
